System: CMT latently infected with HIV-1
Assay: HIV-1 latency reversal in latently infected central memory T cells (p24 staining, HIV-1 mRNA RT-PCR)
Assay type: cell-based, human
Conditions: latently infected cells, pol RT-PCR
Text: Flow cytometry. The following antibodies from Biolegend were used for flow cytometry: Pacific Blue-anti-mouse CD45 (1:100, 103126, clone 30-F11,) APC-anti-human CD45 (1:100, 304012, clone HI30), Pacific Blue-anti-human CD19 (1:100, 302232, clone HIB19), PE-anti-human CD4 (1:100, 317414, clone OKT4), APC/Fire-750-anti-human CD8 (1:100, 34474, clone SK1), FITC-anti-human CD56 (1:100, 392413, clone QA17A16), Pacific Blue-anti-human CD19 (1:100, 302232, clone HIB19), Pacific Blue-anti-human CD3 (1:100, 300329, clone HIT3a), PE/Cy7-anti-HLA-HLA-DR, DP, DQ (1:100, 361708, clone Tü139), PerCP/Cy5.5-anti-human CD11b (1:100, 301327, clone ICRF44), APC/Fire-750-anti-human CD163 (1:100, 333633, clone GHI/61), PE-anti-human CD123 (1:100, 306005, clone 6H6), Alexa Fluor 488 anti-human CD11c (1:100, 301618, clone 3.9), PerCP/Cy5.5-anti-human CD3 (1:100, 300328, clone HIT3a), PerCP/Cy5.5 anti-human CD123 (1:100, 306016, clone 6H6), FITC-anti-mouse CD45 (1:100, 103108, clone 30-F11), PE/Cy7 anti-human CD197 (CCR7) (1:100, 353226, clone G043H7), PE-anti-human CD45R0 (1:100, 304244, clone UCHL1), FITC-anti-human CD45RA (1:100, 304148, clone HI100) and Alexa Fluor 488-anti-CD68 (1:30, 333812, clone Y1/82A), PerCP/Cy5.5-anti-human CD19 (1:100, 302230, clone HIB19), PE-anti-human CD27 (1:100, 356406, clone M-T271) and Pacific Blue-anti-human IgD (1:100, 348224, clone IA6-2). PE-anti-human CD3 (1:100, 556612, clone SP34) and V50-anti-human CD4 (1:100, 560345, clone RPA-T4) were from BD Biosciences. The cells stained with indicated antibodies were analyzed using a BD LSR II flow cytometer (BD Biosciences). To detect HIV-1 p24, spleen cells from Hu-HSC mice were stimulated with 5 μg/ml PHA (Sigma) and 6 ng/ml IL-2 (Biolegend). The cells were stained for T cell markers, followed by fixation and permeabilization using the Cytofix/Cytoperm buffer (BD Bioscience) and intracellular staining with PE-conjugated anti-p24 (1:30, 6604667, clone KC57, Beckman Coulter). The cells were analyzed by flow cytometry using a BD LSR II flow cytometer (BD Bioscience) and FlowJo software (version 10.5.3, BD Bioscience).
T cell isolation and infection with HIV-1. Peripheral blood mononuclear cells (PBMCs) of anonymous healthy donors from the Gulf Coast Blood Center were used to purify CD4^+ T cells with anti-CD4 MACS beads (Miltenyi Biotec). CD3^+CD4^+CD45RA^+CD45RO^−CCR7^+ naïve T cells, CD3^+CD4^+CD45RA^−CD45RO^+CCR7+ central memory T cells (CMT) and CD3^+CD4^+CD45RA^−CD45RO^+CCR7^− effector memory T cells (EMT) were sorted using a BD FACSAria flow cytometer (BD Bioscience). Naive CD4^+ T cells were stimulated with 5 μg/ml PHA and 6 ng/ml IL-2 in RPMI complete medium for 2 days to generate activated CD4^+ T cells. Sorted T cell subsets or activated T cells were infected with HIV-1 CXCR4-tropic NL4-3 or CCRS-tropic AD8 (both virus clones were obtained from the NIH AIDS Reagent Program) at the indicated MOI for 2 h. The cells were washed with PBS and cultured in RPMI complete medium containing 30 nM CCL19 (Biolegend) and 0.3 ng/ml IL-2 (Biolegend) and for 4 days to establish latent HIV infection as described.
Naïve T cells, activated T cells, CMT or EMT with or without infection with HIV-1 (NL4-3, 1 MOI) were cultured for 4 days in the presence of 30 nM CCL19 and 0.3 ng/ml IL-2 for 4 days to establish latent HIV infection. The cells with or without HIV-1 infections were stimulated with 0.1 μM IDB (Ingenol-3,20-dibenzonate, ENZO Life Sciences) in the presence of 0.2 μM ABT-263 (Adooq Bioscience), 2 μM SAR405 (MedChemExpress) or 10 μM chloroquine (CQ, Sigma) as indicated for 48 h. The cells were then incubated with 1 μM FITC-DEVD-FMK (Biovision), followed by staining with APC-Annexin V (Biolegend) and intracellular staining with PE-anti-HIV p24. The cells were analyzed by flow cytometry. The percentage of cell death was calculated by the loss of live cells negative for annexin V and DEVD staining by comparing treated and untreated groups: (untreated—treated)/untreated x 100%. […]

In the case of CC1=C[C@]23C(=O)[C@@H](C=C(COC(=O)c4ccccc4)[C@@H](O)[C@]2(O)[C@H]1OC(=O)c1ccccc1)[C@H]1[C@@H](C[C@H]3C)C1(C)C [IDB, ingenol 3,20-dibenzoate], the “latency reversal observed by expression of HIV-1 mRNA after stimulation” value is reported as “Latency reversal was also observed”.

From patent US20230011398A1, “COMBINATION THERAPY APPROACH TO ELIMINATE HIV INFECTIONS” (priority 2019, published 2023)
